Read-outs that look alike come from different tables or passages of the source.
Tests used:
Assay in all cases: Post-emergence action against weeds, greenhouse pot test, visual scoring
Assay type in all cases: in vivo
[1] = test system: Cyperus esculentus (CYPES); settings: 504 h, read-out: % activity found
Protocol: (§1) Seeds or rhizome pieces of mono- and dicotyledonous harmful and useful plants were placed in peat pots (diameter 4 cm) filled with sandy loam and then covered with soil. The pots were kept in a greenhouse under optimum conditions. In addition, harmful plants encountered in paddy rice cultivation were cultivated in pots with a water level 2 cm above the soil surface.
(§2) About three weeks after the start of the cultivation, the test plants were treated at the 2- to 3-leaf stage. The herbicides, formulated as powder or liquid concentrates, were, either alone or in the combinations according to the invention, sprayed in various dosages on to the green parts of the plants using an application rate of 600 l of water/ha (converted). For further cultivation of the plants, the pots were then again kept under optimum conditions in a greenhouse.
(§3) The visual scoring of the herbicidal effects was carried out in intervals up to 21 days after the treatment. Scoring was carried out in percent in comparison to the untreated control plants. 0%=no herbicidal activity, 100%=complete herbicidal activity=complete kill.
(§4) The percentages from the treatments with the herbicides alone (=individual application) and with the combinations according to the invention (=mixtures) were employed to calculate interactions using the method of Colby. When the observed efficacies of the mixtures exceed the formal sum of the values of the tests with individual applications, they also exceed the expected value according to Colby, which is calculated using the formula below (cf. S. R. Colby; in Weeds 15 (1967) pp. 20 to 22): E=A+B−(A×B/100)
(§5) Here: • A, B=activity of components A and B in percent at a dosage of a and b g of ai/ha (=gramm of active substance per hectare), respectively. • E=expected value in % at a dosage of a+b g of ai/ha. Results
(§6) The combinations according to the invention of herbicides from group (A) with herbicides from group (B) were tested on a broad spectrum of important harmful plants (weed grasses, broad-leaved weeds/Cyperaceae) and useful plants: Triticum aestivum (TRZAS), Stellaria media (STEME), Lolium multiflorum (LOLMU), Veronica persica (VERPE), Alopecurus myosuroides (ALOMY), Matricaria inodora (MATIN), Brassica napus (BRSNW), Viola tricolor (VIOTR), Avena fatua (AVEFA), Amaranthus retroflexus (AMARE), Zea mays (ZEAMX), Pharbitis purpurea (PHBPU), Setaria viridis (SETVI), Fallopia (ex Polygonum) convolvulus (POLCO), Echinochloa crus-galli (ECHCG), Abuthilon theophrasti (ABUTH), Cyperus esculentus (CYPES), Oryza sativa (ORYSA).
(§7) Of particular interest are the results shown in the tables (Tab.) below, where the following key is used: • (1) EPPO code (former Bayer code) for the treated plant (see above) • (2) Time of scoring: DAT (days after treatment) • (3) Component A tested (identifying number) • (4) Component B tested (identifying number) • (5) Dosage component A [g of ai/ha] • (6) Dosage component B [g of ai/ha] • (7) % activity found • (8) E value (calculated according to Colby; see above) • (9) Comments: “SYNERGY”=synergistic interaction (E value<% activity found); “SAFENING”=safener action on useful plant (E value>% activity found)

[2] = test system: Avena fatua (AVEFA); settings: 504 h, read-out: % activity found
Protocol: as §1, §2, §3, §4, §5, §6, §7

[3] = test system: Matricaria inodora (MATIN); settings: Tripleurospermum inodorum, 504 h, read-out: % activity found
Protocol: as §1, §2, §3, §4, §5, §6, §7

[4] = test system: Viola tricolor (VIOTR); settings: 240 h, read-out: % activity found
Protocol: as §1, §2, §3, §4, §5, §6, §7

[5] = test system: Triticum aestivum (TRZAS); settings: read-out: % activity found; for inhibition at 12 g/ha: dosage 12 g of ai/ha
Protocol: as §1, §2, §3, §4, §5, §6, §7

[6] = test system: Zea mays (ZEAMX); settings: read-out: % activity found; for inhibition at 4 g/ha: dosage 4 g of ai/ha
Protocol: as §1, §2, §3, §4, §5, §6, §7

[7] = test system: Lolium multiflorum (LOLMU); settings: read-out: % activity found; for inhibition at 4 g/ha: dosage 4 g of ai/ha
Protocol: as §1, §2, §3, §4, §5, §6, §7

[8] = test system: Oryza sativa (ORYSA); settings: read-out: % activity found; for inhibition at 4 g/ha: dosage 4 g of ai/ha; for inhibition at 12 g/ha: dosage 12 g of ai/ha
Protocol: as §1, §2, §3, §4, §5, §6, §7

[9] = 240 h, 10 DAT, dosage 12 g of ai/ha
[10] = 504 h, 21 DAT, dosage 12 g of ai/ha

## COc1nc(OC)nc(C(=O)c2cccc(F)c2N(C)S(=O)(=O)C(F)F)n1 [A-1]
[1]; 21 DAT, dosage 4 g of ai/ha
  inhibition at 4 g/ha: 80%
[2]; 21 DAT, dosage 4 g of ai/ha
  inhibition at 4 g/ha: 10%
[2]; 21 DAT, dosage 12 g of ai/ha
  inhibition at 12 g/ha: 30%
[3]; 21 DAT, dosage 4 g of ai/ha
  inhibition at 4 g/ha: 50%
[4]; 10 DAT, dosage 4 g of ai/ha
  inhibition at 4 g/ha: 20%
[4]; 10 DAT, dosage 12 g of ai/ha
  inhibition at 12 g/ha: 20%
[5]; 240 h, 10 DAT, dosage 4 g of ai/ha
  inhibition at 4 g/ha: 0%
[5]; 240 h, 10 DAT
  inhibition at 12 g/ha: 0%
[5]; 504 h, 21 DAT
  inhibition at 12 g/ha: 0%
[6]; 240 h, 10 DAT
  inhibition at 4 g/ha: 0%
[6]; [9]
  inhibition at 12 g/ha: 0%
[6]; 504 h, 21 DAT
  inhibition at 4 g/ha: 0%
[6]; [10]
  inhibition at 12 g/ha: 0%
[7]; 240 h, 10 DAT
  inhibition at 4 g/ha: 0%
[7]; [9]
  inhibition at 12 g/ha: 10%
[7]; 504 h, 21 DAT
  inhibition at 4 g/ha: 0%
[7]; [10]
  inhibition at 12 g/ha: 10%
[8]; 240 h, 10 DAT
  inhibition at 4 g/ha: 10%
  inhibition at 12 g/ha: 10%
[8]; 504 h, 21 DAT
  inhibition at 4 g/ha: 0%
  inhibition at 12 g/ha: 10%

## CCOC(=O)COc1ncccc1Oc1cc(-n2c(=O)cc(C(F)(F)F)n(C)c2=O)c(F)cc1Cl [B4-6, ethyl [[3-[2-chloro-5-[3,6-dihydro-3-methyl-2,6-dioxo-4-(trifluoromethyl)-1(2H)-pyrimidinyl]-4-fluorophenoxy]-2-pyridinyl]oxy]acetate, reference compound]
[1]
  inhibition at 9 g/ha: 20%
[2]
  inhibition at 3 g/ha: 0%
[3]
  inhibition at 9 g/ha: 80%
[4]
  inhibition at 3 g/ha: 10%
  inhibition at 9 g/ha: 85%
[5]; 240 h
  inhibition at 9 g/ha: 50%
[5]; 504 h
  inhibition at 3 g/ha: 30%
[6]; 240 h
  inhibition at 3 g/ha: 40%
[6]; 504 h
  inhibition at 3 g/ha: 30%
[8]; 240 h
  inhibition at 3 g/ha: 40%
  inhibition at 9 g/ha: 40%

## COc1cc(OC)nc(Oc2cccc(Oc3nc(OC)cc(OC)n3)c2C(=O)O)n1 [B2-1, sodium 2,6-bis[(4,6-dimethoxy-2-pyrimidinyl)oxy]benzoate, reference compound]
[6]; 240 h
  inhibition at 12 g/ha: 40%
  inhibition at 36 g/ha: 40%
[6]; 504 h
  inhibition at 12 g/ha: 0%
  inhibition at 36 g/ha: 0%
[7]; 240 h
  inhibition at 12 g/ha: 40%
[7]; 504 h
  inhibition at 12 g/ha: 20%
  inhibition at 36 g/ha: 70%
[8]; 504 h
  inhibition at 36 g/ha: 70%

From patent US8158559B2, “Herbicidal combination comprising dimethoxytriazinyl-substituted difluoromethanesulfonylanilides” (Bayer Cropscience AG, priority 2008, dated 2012)
